# In article PMC8087101, “Human parvovirus B19 interacts with globoside under acidic conditions as an essential step in endocytic trafficking” (PLoS Pathogens, 2021):
# Target: T1, B19V (native virus capsid) (Human parvovirus B19 strain HV, UniProt Q9PZT0)
# T1 construct: gene vp; icosahedral capsid of 60 VP1 and VP2 proteins; with Minor capsid protein VP1
# Test: hemagglutination inhibition of human red blood cells by soluble Gb4; binding to cells also by qPCR
# Format: cell-based
# Conditions: pH 6.3, PiBS, room temperature; ceramide of natural source (Matreya), in DMSO; Gb3 as control lipid
substance,measurement,value
globoside [Gb4],"hemagglutination inhibition, effective concentration",0.2 to 0.4 µM
